Source: patent publication US20230399321A1, “CRYSTALLINE FORM II OF MELANOCORTIN RECEPTOR AGONIST COMPOUND AND PREPARATION METHOD THEREFOR” (LG CHEM, LTD., priority 2020, published 2023)
Counter-ions that a name gives are not always drawn.

Legend:
[1] = Thermogravimetric analysis (TGA); format: physicochemical; settings: heated from 30° C. to 350° C. at 10° C./min; no weight loss in the DSC endothermic section
Description: The TGA was measured using Mettler Toledo TGA/DSC 1 module. About 4-8 mg of the sample is weighed and put into a 100 μL Al crucible (flat-bottomed aluminum crucibles). Then, TGA measurement is performed while the sample is heated from 30° C. to 350° C. at a rate of 10° C./min. During the measurement, nitrogen gas is supplied to the inside of the instrument at a rate of 80 mL/min to prevent the inflow of oxygen and other gases. Data collection and evaluation were performed using the software STARe.

[2] = Stability assessment by HPLC after storage; format: physicochemical; settings: for HPLC analysis result, Open ACC: open state, accelerated condition (40° C., 75% RH); for HPLC analysis result, Open ACC / HPLC analysis result, Closed STR: in % (unit assumed); for HPLC analysis result, Closed STR: sealed state, harsh condition, oven at 80° C.
Description: About 10-30 mg of the sample was stored for 4 weeks in an open state under the accelerated condition (40° C., 75% RH) or in a sealed state under the harsh condition in an oven at 80° C.

CC(C)C(=O)N([C@H]1C[C@@H](C(=O)N2CCOCC2)N(C(=O)[C@@H]2CN(C(C)(C)C)C[C@H]2c2ccc(Cl)cc2)C1)[C@H]1CC[C@@H](C)CC1 [Example 1, N-((3S,5S)-1-((3S,4R)-1-(tert-butyl)-4-(4-chlorophenyl)pyrrolidine-3-carbonyl)-5-(morpholine-4-carbonyl)pyrrolidin-3-yl)-N-((1s,4R)-4-methylcyclohexyl) isobutyramide hydrochloride]
thermal stability [1]: thermally stable crystalline form | chemical stability to heat and humidity ([2]; 4 weeks under the accelerated condition (40° C., 75% RH) and the harsh condition (80° C.)): showed chemical stability for 4 weeks | HPLC analysis result, Open ACC ([2]; Week 2): 97.67 | HPLC analysis result, Closed STR ([2]; Week 2): 97.73 | HPLC analysis result, Open ACC ([2]; Week 4): 97.82 | HPLC analysis result, Closed STR ([2]; Week 4): 97.94 | HPLC analysis result, Initial ([2]; initial, before storage): 97.7%
